Laboratory results from patent US20100190788A1, “Amide derivatives as kinase inhitors” (priority 2005, published 2010).
Structures can show the parent of a compound that is named as a salt.

Molecular target: T1, human ROCKα/ROCKII mix (Homo sapiens, UniProt O75116)
T1 construct: purchased Upstate Biotechnology 14-451
Assay: ROCK inhibition, fluorescence polarization (FP) assay with ROCK IMAP Kit
Type: biochemical
Conditions: Table 3, compounds of Formula III20

T1 sequence (O75116 whole entry): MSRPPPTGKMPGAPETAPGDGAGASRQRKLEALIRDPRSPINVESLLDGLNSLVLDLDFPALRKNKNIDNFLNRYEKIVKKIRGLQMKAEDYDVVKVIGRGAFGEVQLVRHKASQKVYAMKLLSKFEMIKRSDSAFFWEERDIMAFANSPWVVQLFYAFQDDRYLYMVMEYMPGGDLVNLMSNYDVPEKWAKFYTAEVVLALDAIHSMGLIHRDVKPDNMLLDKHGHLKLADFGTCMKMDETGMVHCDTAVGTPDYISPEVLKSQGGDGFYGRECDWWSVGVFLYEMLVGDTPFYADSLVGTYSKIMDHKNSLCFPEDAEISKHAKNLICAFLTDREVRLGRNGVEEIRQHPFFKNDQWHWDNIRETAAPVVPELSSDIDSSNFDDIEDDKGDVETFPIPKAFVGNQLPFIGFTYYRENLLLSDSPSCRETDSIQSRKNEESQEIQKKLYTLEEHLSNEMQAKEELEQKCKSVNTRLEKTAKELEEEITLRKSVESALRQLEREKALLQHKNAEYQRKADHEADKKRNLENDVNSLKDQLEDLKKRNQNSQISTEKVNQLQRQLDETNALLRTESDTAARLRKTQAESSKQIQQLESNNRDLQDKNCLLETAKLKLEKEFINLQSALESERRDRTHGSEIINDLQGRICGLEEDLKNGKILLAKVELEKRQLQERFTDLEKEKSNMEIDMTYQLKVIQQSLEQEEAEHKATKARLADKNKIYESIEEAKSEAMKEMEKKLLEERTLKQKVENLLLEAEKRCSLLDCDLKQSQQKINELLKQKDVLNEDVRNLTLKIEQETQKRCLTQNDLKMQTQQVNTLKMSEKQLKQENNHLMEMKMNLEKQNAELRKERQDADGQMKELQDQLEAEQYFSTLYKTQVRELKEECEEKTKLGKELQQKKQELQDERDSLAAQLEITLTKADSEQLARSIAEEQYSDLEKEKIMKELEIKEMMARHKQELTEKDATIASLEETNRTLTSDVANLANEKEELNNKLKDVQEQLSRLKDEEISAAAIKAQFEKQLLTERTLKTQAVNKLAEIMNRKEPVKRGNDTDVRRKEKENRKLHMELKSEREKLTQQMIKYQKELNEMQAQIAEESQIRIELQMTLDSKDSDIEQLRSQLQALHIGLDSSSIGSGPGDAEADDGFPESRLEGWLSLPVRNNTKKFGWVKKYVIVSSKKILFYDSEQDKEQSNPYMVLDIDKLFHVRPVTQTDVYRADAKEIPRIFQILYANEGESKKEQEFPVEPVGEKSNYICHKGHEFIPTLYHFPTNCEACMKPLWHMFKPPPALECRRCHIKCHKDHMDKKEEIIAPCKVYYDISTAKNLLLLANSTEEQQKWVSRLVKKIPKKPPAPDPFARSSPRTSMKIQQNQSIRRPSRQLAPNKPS

SMILES | IC50
NC(CC(=O)N1CCC(c2nc3ccccc3o2)CC1)c1ccc(C(=O)Nc2ccncc2)cc1 (stereo not shown) [Compound 120, 4-[1-amino-3-(4-benzooxazol-2-yl-piperidin-1-yl)-3-oxo-propyl]-N-pyridin-4-yl-benzamide] | < 0.5 µM
COc1ccc(CN2CCN(C(=O)CC(N)c3ccc(C(=O)Nc4ccncc4)cc3)CC2)cc1 (stereo not shown) [Compound 121, 4-{1-Amino-3-[4-(4-methoxy-benzyl)-piperazin-1-yl]-3-oxo-propyl}-N-pyridin-4-yl-benzamide] | 0.5 to 5 µM
NC(CC(=O)N1CCN(Cc2ccccc2F)CC1)c1ccc(C(=O)Nc2ccncc2)cc1 (stereo not shown) [Compound 122, 4-{1-amino-3-[4-(2-fluoro-benzyl)-piperazin-1-yl]-3-oxo-propyl}-N-pyridin-4-yl-benzamide] | < 0.5 µM
NC(CC(=O)N1CCN(Cc2ccc(F)cc2)CC1)c1ccc(C(=O)Nc2ccncc2)cc1 (stereo not shown) [Compound 123, 4-{1-amino-3-[4-(4-fluoro-benzyl)-piperazin-1-yl]-3-oxo-propyl}-N-pyridin-4-yl-benzamide] | < 0.5 µM
NC(CC(=O)N1CCN(C(=O)c2ccco2)CC1)c1ccc(C(=O)Nc2ccncc2)cc1 (stereo not shown) [Compound 124, 4-{1-amino-3-[4-(furan-2-carbonyl)-piperazin-1-yl]-3-oxo-propyl}-N-pyridin-4-yl-benzamide] | < 0.5 µM
NC(CC(=O)N1CCC(c2c[nH]c3ccccc23)CC1)c1ccc(C(=O)Nc2ccncc2)cc1 (stereo not shown) [Compound 125, 4-{1-amino-3-[4-(1H-indol-3-yl)-piperidin-1-yl]-3-oxo-propyl}-N-pyridin-4-yl-benzamide] | < 0.5 µM
COC(=O)c1ccc2c(c1)CCN(C(=O)CC(N)c1ccc(C(=O)Nc3ccncc3)cc1)C2 (stereo not shown) [Compound 126, 2-{3-amino-3-[4-(pyridin-4-ylcarbamoyl)-phenyl]-propionyl}-1,2,3,4-tetrahydro-isoquinoline-6-carboxylic acid methyl ester] | 0.5 to 5 µM
COC(=O)c1ccc(C2CCCCN2C(=O)CC(N)c2ccc(C(=O)Nc3ccncc3)cc2)cc1 (stereo not shown) [Compound 127, 4(1-{3-amino-3-[4-(pyridin-4-ylcarbamoyl)-phenyl]-propionyl}-piperidin-2-yl)-benzoic acid methyl ester] | < 0.5 µM
NC(CC(=O)N1CCc2c([nH]c3ccccc23)C1)c1ccc(C(=O)Nc2ccncc2)cc1 (stereo not drawn) [Compound 128, 4-[1-amino-3-oxo-(1,3,4,9-tetrahydro-β-carbolin-2-yl)-propyl]-N-pyridin-4-yl-benzamide] | < 0.5 µM
NC(CC(=O)N1CCc2c([nH]c3ccccc23)C1c1cccc(Cl)c1)c1ccc(C(=O)Nc2ccncc2)cc1 (stereo not drawn) [Compound 129, 4-{1-amino-3-[1-(3-chloro-phenyl)-1,3,4,9-tetrahydro-β-carbolin-2-yl]-3-oxo-propyl}-N-pyridin-4-yl-benzamide] | 0.5 to 5 µM
COc1ccc(C2c3[nH]c4ccccc4c3CCN2C(=O)CC(N)c2ccc(C(=O)Nc3ccncc3)cc2)cc1Br (stereo not drawn) [Compound 130, 4-{1-amino-3-[1-(3-bromo-4-methoxy-phenyl)-1,3,4,9-tetrahydro-β-carbolin-2-yl]-3-oxo-propyl}-N-pyridin-4-yl-benzamide] | 0.5 to 5 µM
NC(CC(=O)N1CCc2ccccc2C1)c1ccc(C(=O)Nc2ccncc2)cc1 (stereo not shown) [Compound 131, 4-[1-amino-3-(3,4-dihydro-1H-isoquinolin-2-yl)-3-oxo-propyl]-N-pyridin-4-yl-benzamide] | < 0.5 µM

Same assay, conditions: Table 4, compounds 132 to 156

SMILES | IC50
COc1ccc(S(=O)(=O)N2CCCC2C(N)c2ccc(C(=O)Nc3ccncc3)cc2)cc1 (stereo not shown) [Compound 132, 4-{Amino-[1-(4-methoxy-benzenesulfonyl)-pyrrolidin-2-yl]-methyl}-N-pyridin-4-yl-benzamide dihydrochloric acid salt] | 0.5 to 5 µM
NC(c1ccc(C(=O)Nc2ccncc2)cc1)C1CCCN1S(=O)(=O)c1ccccc1Cl (stereo not shown) [Compound 133, 4-{Amino-[1-(2-chloro-benzenesulfonyl)-pyrrolidin-2-yl]-methyl}-N-pyridin-4-yl-benzamide dihydrochloric acid salt] | 0.5 to 5 µM
NC(c1ccc(C(=O)Nc2ccncc2)cc1)C1CCCN1S(=O)(=O)c1cccc(Cl)c1 (stereo not shown) [Compound 134, 4-{Amino-[1-(3-chloro-benzenesulfonyl)-pyrrolidin-2-yl]-methyl}-N-pyridin-4-yl-benzamide dihydrochloric acid salt] | 0.5 to 5 µM
NC(c1ccc(C(=O)Nc2ccncc2)cc1)C1CCCN1S(=O)(=O)c1ccc(Cl)cc1 (stereo not shown) [Compound 135, 4-{Amino-[1-(4-chloro-benzenesulfonyl)-pyrrolidin-2-yl]-methyl}-N-pyridin-4-yl-benzamide dihydrochloric acid salt] | 0.5 to 5 µM
NC(c1ccc(C(=O)Nc2ccncc2)cc1)C1CCCN1S(=O)(=O)c1ccccc1F (stereo not shown) [Compound 136, 4-{Amino-[1-(2-fluoro-benzenesulfonyl)-pyrrolidin-2-yl]-methyl}-N-pyridin-4-yl-benzamide dihydrochloric acid salt] | 0.5 to 5 µM
NC(c1ccc(C(=O)Nc2ccncc2)cc1)C1CCCN1S(=O)(=O)c1cccc(F)c1 (stereo not shown) [Compound 137, 4-{Amino-[1-(3-fluoro-benzenesulfonyl)-pyrrolidin-2-yl]-methyl}-N-pyridin-4-yl-benzamide dihydrochloric acid salt] | 0.5 to 5 µM
NC(c1ccc(C(=O)Nc2ccncc2)cc1)C1CCCN1S(=O)(=O)c1ccc(F)cc1 (stereo not shown) [Compound 138, 4-{Amino-[1-(4-fluoro-benzenesulfonyl)-pyrrolidin-2-yl]-methyl}-N-pyridin-4-yl-benzamide dihydrochloric acid salt] | 0.5 to 5 µM
CN(CC(N)c1ccc(C(=O)Nc2ccncc2)cc1)S(=O)(=O)c1ccccc1 (stereo not shown) [Compound 139, 4-[1-Amino-2-(benzenesulfonyl-methyl-amino)-ethyl]-N-pyridin-4-yl-benzamide dihydrochloric acid salt] | 0.5 to 5 µM
CN(CC(N)c1ccc(C(=O)Nc2ccncc2)cc1)S(=O)(=O)c1ccc(F)cc1 (stereo not shown) [Compound 140, 4-{1-Amino-2-[(4-fluoro-benzenesulfonyl)-methyl-amino]-ethyl}-N-pyridin-4-yl-benzamide dihydrochloric acid salt] | 0.5 to 5 µM
CN(CC(N)c1ccc(C(=O)Nc2ccncc2)cc1)S(=O)(=O)c1cccc(F)c1 (stereo not shown) [Compound 141, 4-{1-Amino-2-[(3-fluoro-benzenesulfonyl)-methyl-amino]-ethyl}-N-pyridin-4-yl-benzamide dihydrochloric acid salt] | 0.5 to 5 µM
CN(CC(N)c1ccc(C(=O)Nc2ccncc2)cc1)S(=O)(=O)c1ccccc1F (stereo not shown) [Compound 142, 4-{1-Amino-2-[(2-fluoro-benzenesulfonyl)-methyl-amino]-ethyl}-N-pyridin-4-yl-benzamide dihydrochloric acid salt] | 0.5 to 5 µM
CN(CC(N)c1ccc(C(=O)Nc2ccncc2)cc1)S(=O)(=O)c1ccccc1Cl (stereo not shown) [Compound 143, 4-{1-Amino-2-[(2-chloro-benzenesulfonyl)-methyl-amino]-ethyl}-N-pyridin-4-yl-benzamide dihydrochloric acid salt] | 0.5 to 5 µM
CN(CC(N)c1ccc(C(=O)Nc2ccncc2)cc1)S(=O)(=O)c1cccc(Cl)c1 (stereo not shown) [Compound 144, 4-{1-Amino-2-[(3-chloro-benzenesulfonyl)-methyl-amino]-ethyl}-N-pyridin-4-yl-benzamide dihydrochloric acid salt] | 0.5 to 5 µM
CN(CC(N)c1ccc(C(=O)Nc2ccncc2)cc1)S(=O)(=O)c1ccc(Cl)cc1 (stereo not shown) [Compound 145, 4-{1-Amino-2-[(4-chloro-benzenesulfonyl)-methyl-amino]-ethyl}-N-pyridin-4-yl-benzamide dihydrochloric acid salt] | 0.5 to 5 µM
COc1ccc(S(=O)(=O)N(C)CC(N)c2ccc(C(=O)Nc3ccncc3)cc2)cc1 (stereo not shown) [Compound 146, 4-{1-Amino-2-[(4-methoxy-benzenesulfonyl)-methyl-amino]-ethyl}-N-pyridin-4-yl-benzamide dihydrochloric acid salt] | < 0.5 µM
N[C@H](CC(=O)N1CCC[C@@H]1c1cccc(F)c1)c1ccc(C(=O)Nc2ccncc2)cc1 [Compound 149, 4-{(R)-1-Amino-3-[(R)-2-(3-fluoro-phenyl)-pyrrolidin-1-yl]-3-oxo-propyl}-N-pyridin-4-yl-benzamide dihydrochloric acid salt] | < 0.5 µM
N[C@H](CC(=O)N1CCC[C@H]1c1cccc(F)c1)c1ccc(C(=O)Nc2ccncc2)cc1 [Compound 150, 4-{(R)-1-Amino-3-[(S)-2-(3-fluoro-phenyl)-pyrrolidin-1-yl]-3-oxo-propyl}-N-pyridin-4-yl-benzamide dihydrochloric acid salt] | < 0.5 µM
N[C@@H](CC(=O)N1CCC[C@@H]1c1cccc(F)c1)c1ccc(C(=O)Nc2ccncc2)cc1 [Compound 151, 4-{(S)-1-Amino-3-[(R)-2-(3-fluoro-phenyl)-pyrrolidin-1-yl]-3-oxo-propyl}-N-pyridin-4-yl-benzamide dihydrochloric acid salt] | < 0.5 µM
N[C@@H](CC(=O)N1CCC[C@H]1c1cccc(F)c1)c1ccc(C(=O)Nc2ccncc2)cc1 [Compound 152, 4-{(S)-1-Amino-3-[(S)-2-(3-fluoro-phenyl)-pyrrolidin-1-yl]-3-oxo-propyl}-N-pyridin-4-yl-benzamide dihydrochloric acid salt] | < 0.5 µM
COc1ccc(S(=O)(=O)N(C)C[C@H](N)c2ccc(C(=O)Nc3ccncc3)cc2)cc1 [Compound 153, 4-{(R)1-Amino-2-[(4-methoxy-benzenesulfonyl)-methyl-amino]-ethyl}-N-pyridin-4-yl-benzamide dihydrochloric acid salt] | 5 to 50 µM
COc1ccc(S(=O)(=O)N(C)C[C@@H](N)c2ccc(C(=O)Nc3ccncc3)cc2)cc1 [Compound 154, 4-{(S)1-Amino-2-[(4-methoxy-benzenesulfonyl)-methyl-amino]-ethyl}-N-pyridin-4-yl-benzamide dihydrochloric acid salt] | < 0.5 µM
N[C@H](C(=O)NCc1ccccc1)c1ccc(C(=O)Nc2ccncc2)cc1 [Compound 155, 4-((S)-Amino-benzylcarbamoyl-methyl)-N-pyridin-4-yl-benzamide dihydrochloric acid salt] | < 0.5 µM
